In data set [1] the test system is ESO26 (GEJ) cancer cell line. Put plainly: Combination with genotoxic agents, viability (Mixtures analysis). Particulars: single agent IC50 on which the mixtures were based. Format: cell-based. As to the method:
(§1) The cell-based experiments and assays were performed with either molecule but not always with both. Compounds (1) and (2) were generally very similar in those assays and experiments. Analysis of the combination experiments was performed using two methods: the Bliss Additivity model and the Mixtures Blend method to determine the degree of synergy, additivity, or antagonism. In the Bliss method, a matrix of Bliss scores was generated for each cell line and treatment, and a sum of the Bliss values over the range of combination concentrations tested was calculated. […] Larger average Bliss values indicate greater confidence in reporting synergy, and smaller scores indicate greater confidence in reporting antagonism. In the Mixtures Blend method combinants were added in a range of optimal ratios using design of experiment (DOE) software (DX-8 from STAT-EASE); the cells were irradiated with 2 Gy as required. Synergy was determined using statistical analysis of the data (ANOVA) to indicate linear (additivity) or statistically significant (p<0.1) non-linear (antagonism or synergy) mixes of the combinants.

Data set [2] relates to HCC-1395. Put plainly: Doxorubicin combination in triple negative breast cancer cells. The conditions noted are these: Homo sapiens, HCC1395, read-out: Doxorubicin IC50 (μM); plating density 5000; BRCA mutant. Format: cell-based. How it is done:
as §1

The test system of data set [3] is HCC-1937. The description is as above. The conditions noted are these: Homo sapiens, BRCA mutant. Format: cell-based. How it is done: as §1
Data set [4] concerns MDA-MB-468. The description is as above. It is filed as cell-based. The conditions noted are these: Homo sapiens, BRCA wild-type. As to the method:
as §1

Data set [5] concerns MDA-MB-436. Described as above. It is filed as cell-based. The conditions noted are these: Homo sapiens, BRCA mutant. As to the method:
as §1

For data set [6], the system named is HCC-1599. The description is as above. It is filed as cell-based. The conditions noted are these: Homo sapiens, HCC1599, read-out: Doxorubicin IC50 (μM); plating density unknown; BRCA mutant. How it is done: as §1
The target in data set [7] is DNA-PK (Homo sapiens, UniProt P78527). The experiment in a line: DNA-PK kinase inhibition radiometric assay. Format: biochemical. The conditions noted are these: 100 μM ATP; competitive tight-binding inhibition fit. How it is done: Accordingly, compounds of the invention were dissolved in DMSO to make 10 mM initial stock solutions. Serial dilutions in DMSO were then made to obtain the final solutions for the assay.

The nature of data set [8]: Two stage dissolution (FaSSGF then FaSSIF). Format: physicochemical. Particulars: 37° C., compared with free form.
Protocol: Two stage dissolution experiments were performed at least in duplicate. Fasted state simulated gastric fluid (FaSSGF) was equilibrated for 30 minutes under stirring to 37° C. in a 100 ml clear class vial using a water bath consisting of a temperature controlled jacketed vessel. The compound 1:adipic acid co-crystal and compound 2:adipic acid co-crystal was added and the suspension was stirred at about 130 rpm and 37° C., respectively. Aliquots (0.5 ml) were taken at 5, 15, 30, and 60 minutes. Solids were separated by filter centrifugation using centrifuge filter units with a 0.45 μm membrane and spinning at 5000 rpm for 5 minutes on an Eppendorff Model 5418 centrifuge. The pH of the dissolution samples was measured after sampling at 15 and 60 minute time points. The supernatants of the filtered samples were 10 fold diluted of with diluent for HPLC Analysis. At the 65 minute timepoint fasted state simulated intestinal fluid FaSSIF equilibrated at 37° C. was added to the suspension and the suspension was continued to stir at 130 rpm. Aliquots (0.5 ml) were taken at 75, 90, 120 and 180 minute timepoints. Solids were separated by filter centrifugation using centrifuge filter units with a 0.45 μm membrane and spinning at 5000 rpm for 5 minutes on an Eppendorff Model 5418 centrifuge. The pH of the dissolution samples was measured after sampling at 75, 90 and 180 minute time points. […]

As usually defined, the IC50 is the concentration that inhibits the measured activity by half. Broadly, the Ki is the equilibrium dissociation constant of an inhibitor or competing ligand from its target. A lower Ki goes with higher affinity.

Read-outs that look alike come from different tables or passages of the source.

Regarding `O=c1[nH]cc(F)c(=O)[nH]1` [Compound 5-FU, fluorouracil], the 50% inhibitory concentration (IC50) in data set [1] came out at 20000 nM.
With `COc1cccc2c1C(=O)c1c(O)c3c(c(O)c1C2=O)C[C@@](O)(C(=O)CO)C[C@@H]3O[C@H]1C[C@H](N)[C@H](O)[C@H](C)O1` [Doxorubicin, reference compound], the 50% inhibitory concentration (IC50) in data set [2] is 0.5 µM; in data set [3] (HCC1937, read-out: Doxorubicin IC50 (μM), plating density 5000) it was 0.2 µM; in data set [3] (HCC1937, read-out: Doxorubicin IC50 (μM), plating density 20000) it was 0.6 µM; in data set [4] (MDA-MB-468, read-out: Doxorubicin IC50 (μM), plating density 5000), 0.02 µM; in data set [4] (MDA-MB-468, read-out: Doxorubicin IC50 (μM), plating density 20000), 0.04 µM; in data set [5] (MDA-MB-436, read-out: Doxorubicin IC50 (μM), plating density 5000) it was 0.7 µM. Moreover, the IC50 came to 0.3 µM in data set [5] (MDA-MB-436, read-out: Doxorubicin IC50 (μM), plating density 20000) and 0.2 µM in data set [6].
Turning to `[2H]c1nc(C)nc([2H])c1-c1cc(NC[C@@H](C)c2cccc3c(C(=O)NC)ccnc23)ncn1` [adipic acid co-crystal of Compound (2)], the inhibition constant Ki in data set [7] was around 2 nM. Also, in data set [8], the “two stage dissolution concentrations” value was “higher Compound 1 and Compound 2 concentrations than Compound 1 or Compound 2 free form”.
Consider `N.N.O=C([O-])C1(C(=O)[O-])CCC1.[Pt+2]` [carboplatin], for which the concentration for half-maximal inhibition (IC50) in data set [1] was determined as 50000 nM.
The same measure, in the same setting: to `N.N.[Cl][Pt][Cl]` [cisplatin] belongs 1500 nM; to `COc1cc([C@@H]2c3cc4c(cc3[C@@H](O[C@@H]3O[C@@H]5CO[C@@H](C)O[C@H]5[C@H](O)[C@H]3O)[C@H]3COC(=O)[C@H]23)OCO4)cc(OC)c1O` [etoposide], 600 nM; to `CC(=O)O[C@H]1C(=O)[C@@]2(C)[C@H]([C@H](OC(=O)c3ccccc3)[C@]3(O)C[C@H](OC(=O)[C@H](O)[C@@H](NC(=O)c4ccccc4)c4ccccc4)C(C)=C1C3(C)C)[C@]1(OC(C)=O)CO[C@@H]1C[C@@H]2O` [paclitaxel], 3 nM.

The values are drawn from US10039761B2, “Co-crystals and pharmaceutical compositions comprising the same” (Vertex Pharmaceuticals Incorporated, priority 2013, dated 2018).
